Test results published in publication PMC9270327 (Communications Biology, 2022).
Structures can show the parent of a compound that is named as a salt. Where two headings read alike, the source gives them in different places.

Assays:
TMPRSS2 [1] = molecular target: T1, TMPRSS2 (Homo sapiens, UniProt O15393); type: biochemical; design: purchased Creative BioMart (New York, USA) or LSBio (Seattle, USA); settings: normalized, 0 nM = 100
From the text: Recombinant human TMPRSS2 was purchased from Creative BioMart (New York, USA) or LSBio (Seattle, USA), factor Xa was obtained from Bio-Techne GmbH (Wiesbaden, Germany). Recombinant human thrombin and matriptase protein were purchased from R&D Systems (Minneapolis, MN, USA).

[2] = system: SARS-CoV-2 Beta (B.1.351), Caco-2 cells; type: cell-based
TMPRSS2 [3] = molecular target: T1, TMPRSS2
Procedure: Negative ctrl: no inhibitor, positive ctrl: inhibitor in assay buffer. d Inhibitory constants Ki as determined from (a–c). Shown are the means ± SD of n = 1 experiment performed in triplicates. No inh. no inhibition.
The activity of the compounds against the recombinant human enzymes was determined in enzyme inhibition assays. […] The measurements were performed on a Tecan infinite® M1000 and the fluorescence intensity was measured by exciting the AMC fluorophore at 380 nm wavelength and recording emission at 460 nm wavelength. […] Fluorescence intensities and absorption were measured every 2 min for 2 h or as endpoint after 2 h. […] To determine the IC50 values, the concentration-response data were plotted with the program GraphPad prism version 8.4.2 (San Diego, California) and a nonlinear regression fit with the equation [Inhibitor] vs. normalized response was applied. The inhibitory constant Ki was calculated from the IC50 values using the Cheng–Prusoff equation (Ki = IC50/[S]/KM) for competitive reversible inhibitors[66].
The stability of the inhibitors was measured according to a modified procedure from ref. [67]. […] At indicated timepoints, 100 µL samples were taken and mixed with 200 µL of ethanol to precipitate proteins. […] The supernatant was aspirated and analyzed using analytical HPLC. The residual inhibitory constants Ki after incubation was assessed by mixing serial dilutions of the inhibitor with recombinant TMPRSS2 as described above.

[4] = system: lentiviral pseudoparticles carrying SARS-CoV-2 Alpha (B.1.1.7) spike, Caco-2 cells; type: cell-based; settings: for SARS-CoV-2 spike driven entry, Mean (0 nM = 100): Fig. 5b

T1 sequence (O15393 whole entry): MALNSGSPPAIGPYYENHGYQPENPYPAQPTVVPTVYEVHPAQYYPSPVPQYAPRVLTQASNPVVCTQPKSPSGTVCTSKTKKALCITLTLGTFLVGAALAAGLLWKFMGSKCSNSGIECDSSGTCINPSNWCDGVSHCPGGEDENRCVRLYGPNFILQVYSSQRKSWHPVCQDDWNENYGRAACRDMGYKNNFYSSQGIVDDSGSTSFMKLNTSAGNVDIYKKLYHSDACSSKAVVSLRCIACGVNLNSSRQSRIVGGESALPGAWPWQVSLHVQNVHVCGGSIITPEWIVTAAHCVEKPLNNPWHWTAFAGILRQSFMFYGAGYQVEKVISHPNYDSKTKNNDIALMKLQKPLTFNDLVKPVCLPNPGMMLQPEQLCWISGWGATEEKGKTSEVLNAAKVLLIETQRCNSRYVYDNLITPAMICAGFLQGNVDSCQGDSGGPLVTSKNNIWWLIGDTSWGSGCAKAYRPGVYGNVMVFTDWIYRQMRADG

CN(C)C(=O)COC(=O)Cc1ccc(OC(=O)c2ccc(NC(=N)N)cc2)cc1 [CM, camostat mesylate, reference compound]
TMPRSS2 activity, Mean (Fig. 2a) (TMPRSS2 [1]; 0.05 nM): 101.705
TMPRSS2 activity, Mean (Fig. 2a) (TMPRSS2 [1]; 0.5 nM): 66.4773
TMPRSS2 activity, Mean (Fig. 2a) (TMPRSS2 [1]; 5 nM): 16.1932
TMPRSS2 activity, Mean (Fig. 2a) (TMPRSS2 [1]; 50 nM): 0.2841
TMPRSS2 activity, Mean (Fig. 2a) (TMPRSS2 [1]; 500 nM): 0.5682
TMPRSS2 activity, Mean (Fig. 2a) (TMPRSS2 [1]; 5000 nM): -0.142
TMPRSS2 activity, Mean (Fig. 2a) (TMPRSS2 [1]; 50000 nM): 0.2841
TMPRSS2 activity, Mean (Fig. 2a) (TMPRSS2 [1]; 500000 nM): -0.4261
IC50 ([2]; read-out: IC50 SARS-CoV-2 Beta): 9.31 µM
IC50 ([2]; read-out: IC50 SARS-CoV-2 Beta (text)): 9.3 µM
residual inhibitory activity against TMPRSS2 after incubation in body fluids (TMPRSS2 [3]; human serum / plasma, up to 10 days): inactive
reduction of activity against TMPRSS2 upon addition to serum (TMPRSS2 [3]; immediately after addition to human serum): around 60 fold
TMPRSS2 activity, Mean (0 nM = 100) (TMPRSS2 [3]; inhibitor 0.0167 nM, 0 min in serum): 97.0909
TMPRSS2 activity, Mean (0 nM = 100) (TMPRSS2 [3]; inhibitor 0.0167 nM, 30 min in serum): 98.7509
TMPRSS2 activity, Mean (0 nM = 100) (TMPRSS2 [3]; inhibitor 0.0167 nM, 60 min in serum): 96.1122
TMPRSS2 activity, Mean (0 nM = 100) (TMPRSS2 [3]; inhibitor 0.0167 nM, 120 min in serum): 96.1122
TMPRSS2 activity, Mean (0 nM = 100) (TMPRSS2 [3]; inhibitor 0.0167 nM, 24 h in serum): 109.9729
TMPRSS2 activity, Mean (0 nM = 100) (TMPRSS2 [3]; inhibitor 0.0167 nM, 10 d in serum): 104.3134
TMPRSS2 activity, Mean (0 nM = 100) (TMPRSS2 [3]; inhibitor 0.0167 nM, positive ctrl): 91.4692
TMPRSS2 activity, Mean (0 nM = 100) (TMPRSS2 [3]; inhibitor 0.167 nM, 0 min in serum): 95.7227
TMPRSS2 activity, Mean (0 nM = 100) (TMPRSS2 [3]; inhibitor 0.167 nM, 30 min in serum): 96.8742
TMPRSS2 activity, Mean (0 nM = 100) (TMPRSS2 [3]; inhibitor 0.167 nM, 60 min in serum): 95.2722
TMPRSS2 activity, Mean (0 nM = 100) (TMPRSS2 [3]; inhibitor 0.167 nM, 120 min in serum): 95.2722
TMPRSS2 activity, Mean (0 nM = 100) (TMPRSS2 [3]; inhibitor 0.167 nM, 24 h in serum): 109.0078
TMPRSS2 activity, Mean (0 nM = 100) (TMPRSS2 [3]; inhibitor 0.167 nM, 10 d in serum): 107.9350
TMPRSS2 activity, Mean (0 nM = 100) (TMPRSS2 [3]; inhibitor 0.167 nM, positive ctrl): 67.2760
TMPRSS2 activity, Mean (0 nM = 100) (TMPRSS2 [3]; inhibitor 1.665 nM, 0 min in serum): 91.6733
TMPRSS2 activity, Mean (0 nM = 100) (TMPRSS2 [3]; inhibitor 1.665 nM, 30 min in serum): 104.2530
TMPRSS2 activity, Mean (0 nM = 100) (TMPRSS2 [3]; inhibitor 1.665 nM, 60 min in serum): 90.9967
TMPRSS2 activity, Mean (0 nM = 100) (TMPRSS2 [3]; inhibitor 1.665 nM, 120 min in serum): 90.9967
TMPRSS2 activity, Mean (0 nM = 100) (TMPRSS2 [3]; inhibitor 1.665 nM, 24 h in serum): 110.5140
TMPRSS2 activity, Mean (0 nM = 100) (TMPRSS2 [3]; inhibitor 1.665 nM, 10 d in serum): 105.0630
TMPRSS2 activity, Mean (0 nM = 100) (TMPRSS2 [3]; inhibitor 1.665 nM, positive ctrl): 16.5425
TMPRSS2 activity, Mean (0 nM = 100) (TMPRSS2 [3]; inhibitor 16.65 nM, 0 min in serum): 58.3113
TMPRSS2 activity, Mean (0 nM = 100) (TMPRSS2 [3]; inhibitor 16.65 nM, 30 min in serum): 66.2869
TMPRSS2 activity, Mean (0 nM = 100) (TMPRSS2 [3]; inhibitor 16.65 nM, 60 min in serum): 73.7709
TMPRSS2 activity, Mean (0 nM = 100) (TMPRSS2 [3]; inhibitor 16.65 nM, 120 min in serum): 73.7709
TMPRSS2 activity, Mean (0 nM = 100) (TMPRSS2 [3]; inhibitor 16.65 nM, 24 h in serum): 114.2941
TMPRSS2 activity, Mean (0 nM = 100) (TMPRSS2 [3]; inhibitor 16.65 nM, 10 d in serum): 105.5411
TMPRSS2 activity, Mean (0 nM = 100) (TMPRSS2 [3]; inhibitor 16.65 nM, positive ctrl): 3.2273
TMPRSS2 activity, Mean (0 nM = 100) (TMPRSS2 [3]; inhibitor 166.5 nM, 0 min in serum): 7.4453
TMPRSS2 activity, Mean (0 nM = 100) (TMPRSS2 [3]; inhibitor 166.5 nM, 30 min in serum): 7.7321
TMPRSS2 activity, Mean (0 nM = 100) (TMPRSS2 [3]; inhibitor 166.5 nM, 60 min in serum): 7.7056
TMPRSS2 activity, Mean (0 nM = 100) (TMPRSS2 [3]; inhibitor 166.5 nM, 120 min in serum): 7.7056
TMPRSS2 activity, Mean (0 nM = 100) (TMPRSS2 [3]; inhibitor 166.5 nM, 24 h in serum): 43.5256
TMPRSS2 activity, Mean (0 nM = 100) (TMPRSS2 [3]; inhibitor 166.5 nM, 10 d in serum): 104.8964
TMPRSS2 activity, Mean (0 nM = 100) (TMPRSS2 [3]; inhibitor 166.5 nM, positive ctrl): 1.7660
TMPRSS2 activity, Mean (0 nM = 100) (TMPRSS2 [3]; inhibitor 1665 nM, 0 min in serum): 2.9461
TMPRSS2 activity, Mean (0 nM = 100) (TMPRSS2 [3]; inhibitor 1665 nM, 30 min in serum): 4.0032
TMPRSS2 activity, Mean (0 nM = 100) (TMPRSS2 [3]; inhibitor 1665 nM, 60 min in serum): 3.9955
TMPRSS2 activity, Mean (0 nM = 100) (TMPRSS2 [3]; inhibitor 1665 nM, 120 min in serum): 3.9955
TMPRSS2 activity, Mean (0 nM = 100) (TMPRSS2 [3]; inhibitor 1665 nM, 24 h in serum): 8.1597
TMPRSS2 activity, Mean (0 nM = 100) (TMPRSS2 [3]; inhibitor 1665 nM, 10 d in serum): 96.3530
TMPRSS2 activity, Mean (0 nM = 100) (TMPRSS2 [3]; inhibitor 1665 nM, positive ctrl): 2.6461
IC50 ([4]; Caco-2 cells, luciferase 2 days post transduction, read-out: IC50 pseudotyped lentivirus Alpha): 0.0987 µM
SARS-CoV-2 spike driven entry, Mean (0 nM = 100) ([4]; compound 3.2 nM): 71.733
SARS-CoV-2 spike driven entry, Mean (0 nM = 100) ([4]; compound 16 nM): 72.519
SARS-CoV-2 spike driven entry, Mean (0 nM = 100) ([4]; compound 80 nM): 51.5305
SARS-CoV-2 spike driven entry, Mean (0 nM = 100) ([4]; compound 400 nM): 39.483
SARS-CoV-2 spike driven entry, Mean (0 nM = 100) ([4]; compound 2000 nM): 18.526
